Source: the supplement of paper PMC10307832

Key:
Experiment in all cases: relative viability (nuclei count vs DMSO), 5 days (fraction); higher = more cells survive
[1] = tested on: NCI-H1792
In short: (§1)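 Lung cancer cell lines, seeded in 1536-well plates, were treated the following day by pin tool with a single drug or with five library-drug doses (not always all listed) in √10 steps on top of a fixed anchor-drug dose. Cells were fixed and nuclei stained in one step after 5 days, and nuclei were counted. Relative viability is the nuclei count for treated wells divided by that for vehicle wells, reported as medians of duplicate plates.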

[2] = tested on: NCI-H1975
In short: as §1

[3] = tested on: NCI-H2342
In short: as §1

[4] = tested on: NCI-H23
In short: as §1

[5] = tested on: NCI-H358
In short: as §1

[6] = tested on: NCI-H441
In short: as §1

[7] = tested on: NCI-H596
In short: as §1

[8] = tested on: NCI-H650
In short: as §1

[9] = tested on: NCI-H838
In short: as §1

[10] = tested on: SK-MES-1
In short: as §1

[11] = tested on: SW 900
In short: as §1

For `Nc1ccn([C@@H]2O[C@H](CO)[C@@H](O)[C@@H]2O)c(=O)n1` [Cytarabine] + CC(=O)Nc1cccc(-n2c(=O)n(C3CC3)c(=O)c3c(Nc4ccc(I)cc4F)n(C)c(=O)c(C)c32)c1 [Trametinib] (partner 0.02 µM), the relative viability ([1]; first compound 0.01581 µM) was 0.438, the relative viability ([1]; first compound 0.05 µM) was 0.356 and the relative viability ([1]; first compound 0.1581 µM) was 0.213. The relative viability ([1]; first compound 0.5 µM) was 0.118, the relative viability ([2]; first compound 0.005 µM) was 0.34 and the relative viability ([2]; first compound 0.01581 µM) was 0.267. It also gave a relative viability ([2]; first compound 0.05 µM) of 0.631, a relative viability ([2]; first compound 0.1581 µM) of 0.25 and a relative viability ([2]; first compound 0.5 µM) of 0.24. The relative viability ([3]; first compound 0.005 µM) was 0.779, the relative viability ([3]; first compound 0.01581 µM) was 0.825 and the relative viability ([3]; first compound 0.05 µM) was 0.803. The relative viability ([3]; first compound 0.1581 µM) was 0.579, the relative viability ([3]; first compound 0.5 µM) was 0.646 and the relative viability ([4]; first compound 0.005 µM) was 0.441. It also gave a relative viability ([4]; first compound 0.01581 µM) of 0.355, a relative viability ([4]; first compound 0.05 µM) of 0.223 and a relative viability ([4]; first compound 0.1581 µM) of 0.165. It also gave a relative viability ([4]; first compound 0.5 µM) of 0.14, a relative viability ([5]; first compound 0.005 µM) of 0.126 and a relative viability ([5]; first compound 0.01581 µM) of 0.108. It also gave a relative viability ([5]; first compound 0.05 µM) of 0.103, a relative viability ([5]; first compound 0.1581 µM) of 0.076 and a relative viability ([5]; first compound 0.5 µM) of 0.0812. For the same molecule, the relative viability ([6]; first compound 0.005 µM) was 0.361, the relative viability ([6]; first compound 0.01581 µM) was 0.421 and the relative viability ([6]; first compound 0.05 µM) was 0.451. It also gave a relative viability ([6]; first compound 0.1581 µM) of 0.242, a relative viability ([6]; first compound 0.5 µM) of 0.199 and a relative viability ([7]; first compound 0.005 µM) of 0.812. It also gave a relative viability ([7]; first compound 0.01581 µM) of 0.759, a relative viability ([7]; first compound 0.05 µM) of 0.69 and a relative viability ([7]; first compound 0.1581 µM) of 0.5. The relative viability ([7]; first compound 0.5 µM) was 0.499, the relative viability ([8]; first compound 0.005 µM) was 0.793 and the relative viability ([8]; first compound 0.01581 µM) was 0.694. It also gave a relative viability ([8]; first compound 0.05 µM) of 0.47, a relative viability ([8]; first compound 0.1581 µM) of 0.186 and a relative viability ([8]; first compound 0.5 µM) of 0.196. It also gave a relative viability ([9]; first compound 0.005 µM) of 0.724, a relative viability ([9]; first compound 0.01581 µM) of 0.535 and a relative viability ([9]; first compound 0.05 µM) of 0.543. The relative viability ([9]; first compound 0.1581 µM) was 0.274, the relative viability ([9]; first compound 0.5 µM) was 0.246 and the relative viability ([10]; first compound 0.005 µM) was 0.545. The relative viability ([10]; first compound 0.01581 µM) was 0.603, the relative viability ([10]; first compound 0.05 µM) was 0.315 and the relative viability ([10]; first compound 0.1581 µM) was 0.215. The relative viability ([10]; first compound 0.5 µM) was 0.227, the relative viability ([11]; first compound 0.005 µM) was 0.83 and the relative viability ([11]; first compound 0.01581 µM) was 0.653. The relative viability ([11]; first compound 0.05 µM) was 0.662, the relative viability ([11]; first compound 0.1581 µM) was 0.23 and the relative viability ([11]; first compound 0.5 µM) was 0.243.
